{"source": "patent US7763596B2", "about": "“Selective glucocorticoid receptor agonists” (The University of Manchester, priority 2000, dated 2010)", "type_in_all_cases": "cell-based", "key": {"GFP tagged GR": {"target": "T1, GFP tagged GR (Homo sapiens, UniProt P04150)", "T1 construct": "expressed in transfected cells; host or cells: COS 7", "T1 sequence (P04150 1-777)": "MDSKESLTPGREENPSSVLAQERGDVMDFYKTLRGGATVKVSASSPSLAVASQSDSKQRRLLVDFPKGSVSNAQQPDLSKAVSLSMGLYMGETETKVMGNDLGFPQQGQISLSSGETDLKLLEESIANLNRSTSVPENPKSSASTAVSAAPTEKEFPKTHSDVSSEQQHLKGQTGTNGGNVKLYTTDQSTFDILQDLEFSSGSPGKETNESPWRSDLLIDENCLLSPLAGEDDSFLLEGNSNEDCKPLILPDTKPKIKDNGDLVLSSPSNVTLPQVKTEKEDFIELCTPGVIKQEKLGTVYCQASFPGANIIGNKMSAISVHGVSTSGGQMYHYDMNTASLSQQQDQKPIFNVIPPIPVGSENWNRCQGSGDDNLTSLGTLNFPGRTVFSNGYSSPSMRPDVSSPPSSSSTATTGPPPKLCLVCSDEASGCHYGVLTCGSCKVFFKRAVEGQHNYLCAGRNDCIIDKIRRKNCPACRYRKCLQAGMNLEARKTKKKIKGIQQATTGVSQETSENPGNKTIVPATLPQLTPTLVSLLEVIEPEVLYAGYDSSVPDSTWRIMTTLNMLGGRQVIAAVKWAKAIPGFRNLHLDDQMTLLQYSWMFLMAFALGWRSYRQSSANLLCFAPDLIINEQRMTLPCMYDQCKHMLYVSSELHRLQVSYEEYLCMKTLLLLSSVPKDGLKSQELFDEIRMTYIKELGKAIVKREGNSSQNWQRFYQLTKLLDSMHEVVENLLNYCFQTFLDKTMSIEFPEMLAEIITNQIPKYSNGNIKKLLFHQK", "assay": "Nuclear translocation using GFP tagged GR and fluorescent microscopy", "conditions": "COS 7 cells, 100 nM, 3 hours", "source_text": "The un-liganded GR is present in the cytoplasm of cells in association with heat shock proteins (HSPs). The binding of an agonist ligand to the GR causes dissociation from the HSPs and translocation to the nucleus. A type I antagonist ligand can bind to the GR but cannot translocate to the nucleus. A type II antagonist ligand can bind to the GR, translocate to the nucleus and bind to DNA but cannot activate gene transcription. Therefore, the ability of a putative ligand to translocate the GR helps to determine its status as an agonist or antagonist. COS 7 cells were transfected with 5 μg of a green fluorescent protein (GFP) tagged GR expression vector. After transfection, these cells were split into 6 well plates with sterile microscope cover slips placed at the bottom of each well. The cells were allowed to recover for 18 hours and then the medium was removed, the cells were washed three times with sterile phosphate buffered saline (PBS) and new medium was added containing charcoal stripped FCS in place of normal FCS. The cells were incubated for 18 hours and then the steroids of FIGS. 1 and 2A were added to make a final concentration of 100 nM. The cells were incubated for a further 3 hours and then the medium was aspirated and the cells were fixed to the glass coverslips by adding ice cold methanol and incubating at −20° C. for 30 mins. The coverslips with the transfected cells fixed to them were mounted on slides and the cellular localisation of the GFP tagged GR was analysed by fluorescent microscopy using an Axioplan 2 microscope (Zeiss, Oberkochen, Germany) and KS300 v3.0 analysis software (Zeiss)."}, "[1]": {"target": "T2, GR ligand binding domain / SRC-1 (Homo sapiens, UniProt P04150)", "T2 construct": "expressed in transfected cells", "T2 sequence (P04150 524-758 limits assumed)": "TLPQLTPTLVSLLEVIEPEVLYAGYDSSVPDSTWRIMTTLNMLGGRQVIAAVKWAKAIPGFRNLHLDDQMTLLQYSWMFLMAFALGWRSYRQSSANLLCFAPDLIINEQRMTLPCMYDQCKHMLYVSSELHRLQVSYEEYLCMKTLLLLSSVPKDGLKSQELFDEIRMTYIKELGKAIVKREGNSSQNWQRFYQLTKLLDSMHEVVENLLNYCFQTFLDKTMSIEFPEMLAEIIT", "assay": "SRC-1 association assay by mammalian two-hybrid analysis", "conditions": "for SRC-1 recruitment at the highest concentration tested: 100 nM", "source_text": "SRC-1 is an important co-activator of GR action that associates with the GR in a ligand dependant manner. The ability of SRC-1 to associate with the GR in this manner can be used as a measure of potency of ligand mediated transactivation. To perform this assay plasmids that generated VP16-GR ligand binding domain (LBD) and GAL4-SRC-1 fusion proteins and a GAL4 binding luciferase reporter gene construct were transfected into in a cell line lacking GR and deficient in endogenous SRC-1. The GAL4-SRC-1 fusion protein could bind to specific sites upstream of the luciferase reporter gene construct. If the SRC-1 fusion protein associated with the ligand bound VP16-GRLBD fusion protein then the VP-16 activation domain augmented the luciferase gene expression."}, "endogenous GR": {"target": "T3, endogenous GR (Homo sapiens, UniProt P04150)", "T3 construct": "This cell line contains functional endogenous GR; endogenous in cells; host or cells: A549", "T3 sequence (P04150 1-777)": "T1 sequence (P04150 1-777)", "assay": "Transrepression assay using endogenous GR in the A549 lung epithelial cell line (TNF, NRE luciferase)", "conditions": "compound G at 1, 10, 100 and 500 nM", "source_text": "The A549 cell line (ECACC:86012804) is derived from the human lung epithelial cells from a carcinoma. This cell line contains functional endogenous GR and is stimulated by Tumour Necrosis Factor (TNF) to produce IL-8.\nIn this assay TNF was used to stimulate NFkB activity in a cell line that expressed endogenous GR. The ability of NFkB to activate an NRE “driving” a luciferase reporter gene could then be repressed by GR in a ligand dependent manner and, therefore, used to measure transrepression.\nCOS7 cells were transfected with 3 μg NRE-Luc per 10 cm tissue culture dish. The cells were plated out in to 24 well plates after transfection and left for 18 hours to recover before the steroids of FIGS. 1 and 2 were added. Next TNF was added to the samples after 3 hours incubation with the steroids and after another 15 hours the cells were lysed and a luciferase assay was performed."}}, "data": [{"smiles": "CC1CC2C3CCC4=CC(=O)C=CC4(C)C3(F)C(O)CC2(C)C12OC(C)(C)OCC2=O", "note": "(stereo not drawn) [Compound A]", "values": [{"measurement": "nuclear translocation of the GFP tagged glucocorticoid receptor", "setting": "GFP tagged GR", "result": "caused nuclear localisation"}, {"measurement": "SRC-1 recruitment, sub-maximal response", "setting": "[1]; 1, 10 and 100 nM, relative to dexamethasone", "result": "~50", "unit": "%"}, {"measurement": "repression of TNF activation of A549 cells (NRE reporter gene)", "setting": "endogenous GR", "result": "exhibited transrepression"}]}, {"smiles": "CC1CC2C3CCC4=CC(=O)C=CC4(C)C3(F)C(O)CC2(C)C1(O)C(=O)COC(=O)c1ccc(F)cc1", "note": "(stereo not drawn) [Compound D]", "values": [{"measurement": "nuclear translocation of the GFP tagged glucocorticoid receptor", "setting": "GFP tagged GR", "result": "caused nuclear localisation"}, {"measurement": "SRC-1 recruitment compared with dexamethasone", "setting": "[1]; 1, 10 and 100 nM", "result": "recruited SRC-1 to the same extent as dexamethasone"}, {"measurement": "repression of TNF activation of A549 cells (NRE reporter gene)", "setting": "endogenous GR", "result": "exhibited transrepression"}]}, {"smiles": "CCCNC(=O)C1(O)C(C)CC2C3CCC4=CC(=O)C=CC4(C)C3(F)C(O)CC21C", "note": "(stereo not drawn) [Compound G]", "values": [{"measurement": "SRC-1 recruitment at the highest concentration tested", "setting": "[1]", "result": "no SRC-1 recruitment"}, {"measurement": "transactivation as measured by SRC-1 recruitment", "setting": "[1]; 1 and 10 nmolar", "result": "no transactivation as measured by SRC-1 recruitment"}, {"measurement": "repression of TNF activation of A549 cells (NRE reporter gene)", "setting": "endogenous GR", "result": "repressed at least as well as dexamethasone and also had a “left shifted” response with greater maximal repression"}]}, {"smiles": "Cc1ccc(NC(=O)C2(O)C(C)CC3C4CCC5=CC(=O)C=CC5(C)C4(F)C(O)CC32C)cc1", "note": "(stereo not drawn) [Compound O]", "values": [{"measurement": "nuclear translocation of the GFP tagged glucocorticoid receptor", "setting": "GFP tagged GR", "result": "failed to cause translocation"}]}, {"smiles": "CCCCCCNC(=O)OCC(=O)C1(O)C(C)CC2C3CCC4=CC(=O)C=CC4(C)C3(F)C(O)CC21C", "note": "(stereo not drawn) [Compound T]", "values": [{"measurement": "SRC-1 recruitment at the highest concentration tested", "setting": "[1]", "result": "significant response"}]}, {"smiles": "CCCOC(=O)C1(O)C(C)CC2C3CCC4=CC(=O)C=CC4(C)C3(F)C(O)CC21C", "note": "(stereo not drawn) [R]", "values": [{"measurement": "SRC-1 recruitment at the highest concentration tested", "setting": "[1]", "result": "significant response"}]}]}
